# Reference: patent US20110183969A1, “ANTIFUNGAL COMBINATION THERAPY” (priority 2008, published 2011)
# Columns and labels:
# Test in all cases: MIC (YAG medium)
# Type in all cases: cell-based
# Aspergillus flavus = settings: YAG medium, MIC banded into grades; for MIC: Aspergillus flavus, read-out: MIC A. flavus (grade)
# Method in brief: (§1)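 OD 485 nm read-out after 24 h, 35° C; MIC = lowest concentration inhibiting growth >70% vs drug-free control, in mg/L. Medium YAG (1% glucose, 1% NH4Cl, 0.5% yeast extract); inoculum 1-2×10^4 cfu/mL; compound range 50-0.05 mg/L, repeated at 0.5-0.0005 mg/L […].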
# [1] = system: Aspergillus fumigatus AF210; settings: YAG medium, MIC banded into grades, AF210; for MIC: Aspergillus fumigatus, read-out: MIC A. fumigatus 210 (grade)
# Method in brief: as §1
# [2] = system: Aspergillus fumigatus AF293; settings: YAG medium, MIC banded into grades, AF293; for MIC: Aspergillus fumigatus, read-out: MIC A. fumigatus (grade)
# Method in brief: as §1
# Aspergillus niger = settings: YAG medium, MIC banded into grades; for MIC: Aspergillus niger, read-out: MIC A. niger (grade)
# Method in brief: as §1
# Aspergillus terreus AT49 = settings: YAG medium, MIC banded into grades, AT49; for MIC: Aspergillus terreus, read-out: MIC A. terreus 49 (grade)
# Method in brief: as §1
# Aspergillus terreus AT4 = settings: YAG medium, MIC banded into grades, AT4; for MIC: Aspergillus terreus, read-out: MIC A. terreus (grade)
# Method in brief: as §1
Molecule,MIC A. flavus (grade) (Aspergillus flavus),MIC A. fumigatus 210 (grade) [1],MIC A. fumigatus (grade) [2],MIC A. niger (grade) (Aspergillus niger),MIC A. terreus 49 (grade) (Aspergillus terreus AT49),MIC A. terreus (grade) (Aspergillus terreus AT4),MIC (Aspergillus flavus) [µg/mL],MIC [1] [µg/mL],MIC [2] [µg/mL],MIC (Aspergillus niger) [µg/mL],MIC (Aspergillus terreus AT49) [µg/mL],MIC (Aspergillus terreus AT4) [µg/mL]
N-[4-(3-Ethyl-1H-imidazol-2yl methyl)-phenyl]-2-oxo-2-(2-o-tolyl-indolizin-3yl)-acetamide [Example 30],1 (a grade of 1 represents an MIC of greater than 10 mg/L),1 (a grade of 1 represents an MIC of greater than 10 mg/L),1 (a grade of 1 represents an MIC of greater than 10 mg/L),1 (a grade of 1 represents an MIC of greater than 10 mg/L),1 (a grade of 1 represents an MIC of greater than 10 mg/L),1 (a grade of 1 represents an MIC of greater than 10 mg/L),,,,,,
"COCc1cc(NC(=O)C(=O)c2c(-c3ccccc3)cc3ccccn23)ccc1N1CCN(c2cc(C)cc(C)n2)CC1 [Example 81, N-{4-[4-(4,6-Dimethyl-pyridin-2-yl)-piperazin-1-yl]-3-methoxymethyl-phenyl}-2-oxo-2-(2-phenyl-indolizin-3-yl)-acetamide]",,,,,,,< 1,< 1,< 1,< 1,< 1,< 1
"Cc1cc(C)nc(N2CCN(c3ccc(NC(=O)C(=O)c4c(-c5ccccc5)cc5ccccn45)cc3C)CC2)c1 [Example 82, N-{4-[4-(4,6-Dimethyl-pyridin-2-yl)-piperazin-1-yl]-3-methyl-phenyl}-2-oxo-2-(2-phenyl-indolizin-3-yl)-acetamide]",,,,,,,< 1,< 1,< 1,< 1,< 1,< 1
"O=C(Nc1ccc(N2CCN(Cc3ccco3)CC2)cn1)C(=O)c1c(-c2ccccc2)cc2ccccn12 [Example 34, N-[5-(2-Furan-2-yl-methyl-piperazin-yl)-peridin-2-yl]-2-oxo-2-(2-phenylindolizin-3-yl)-acetamide]",3 (A grade of 3 represents an MIC of less than 1 mg/L),3 (A grade of 3 represents an MIC of less than 1 mg/L),3 (A grade of 3 represents an MIC of less than 1 mg/L),3 (A grade of 3 represents an MIC of less than 1 mg/L),3 (A grade of 3 represents an MIC of less than 1 mg/L),3 (A grade of 3 represents an MIC of less than 1 mg/L),,,,,,
"Cc1cc(C)nc(N(C)CCN(C)c2ccc(NC(=O)C(=O)c3c(-c4ccccc4)cc4ccccn34)cc2)c1 [Example 55, N-[4-({2-[(4,6-Dimethyl-pyridin-2-yl)-methyl-amino]-ethyl}-methyl-amino)-phenyl]-2-oxo-2-(2-phenyl-indolizin-3-yl)-acetamide]",,,,,,,< 1,< 1,< 1,< 1,< 1,< 1
"O=C(Nc1ccc(N2CCN(c3cccc(NCCO)n3)CC2)cc1)C(=O)c1c(-c2ccccc2)cc2ccccn12 [Example 87, N-(4-{4-[6-(2-hydroxyethylamino)-pyridin-2-yl]-piperazin-1-yl}-phenyl)-2-oxo-2-(2-phenyl-indolizin-3-yl)-acetamide]",,,,,,,< 1,1 to 10,< 1,> 10,< 1,1 to 10
"Cc1cc(C)nc(N2CCN(c3ccc(NC(=O)C(=O)c4c(C(C)C)cc5ccccn45)cc3)CC2)c1 [Example 61, N-{4-[4-(4,6-Dimethyl-pyridin-2-yl)-piperazin-1-yl]-phenyl}-2-(2-isopropyl-indolizin-3-yl)-2-oxo-acetamide]",,,,,,,< 1,< 1,< 1,< 1,< 1,< 1
"CCc1ccnc(N2CCN(c3ccc(NC(=O)C(=O)c4c(-c5ccccc5)cc5ccccn45)cc3)CC2)c1 [Example 75, N-{4-[4-(4-ethyl-pyridin-2-yl)-piperazin-1-yl]-phenyl}-2-oxo-2-(2-phenyl-indolizin-3-yl)-acetamide]",,,,,,,< 1,< 1,< 1,< 1,< 1,< 1
